Active and inactive are the calls of the source.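 The calls were made as follows: active = compounds giving half or more protection of infected cells from virus-caused growth loss, again on retest; inactive = the rest.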 Where a SMILES comes first, the peptide text is derived from it. The star is where a group is joined. Cbz = O=C(OCc1ccccc1)*; OSu = O=C1CCC(=O)N1O*
System: CEM cells HIV-1 protection, formazan growth assay
Assay: NCI AIDS Antiviral Assay
Settings: for IC50: measured here: growth of uninfected CEM cells
Method: The ability of compounds to protect human CEM cells from HIV-1 infection is measured as a screen for new compounds capable of inhibiting the HIV virus. Five concentrations of drug were tested on uninfected and infected cells and cell growth was measured using a soluble formazan assay. […] Compounds that provided at least 50% protection were retested. Compounds that provided at least 50% protection on retest were listed as moderately active. Compounds that reproducibly provided 100% protection were listed as confirmed active. […] Note that the inability to provide protection could be due to toxicity.

SMILES	EC50 [µM]	IC50 [µM]	outcome
C=CN(c1ccccc1)c1nc(=O)[nH]c(=O)[nH]1	> 200	> 200	–
OC12c3ccccc3C3CCC4(OCCO4)C3C1c1ccccc12 (centres undefined)	> 200	141	–
C=C(C)[C@@H]1CC[C@]2(COC(=O)CC(C)CC(=O)O)CC[C@]3(C)[C@H](CC[C@@H]4[C@@]5(C)CC[C@H](OC(=O)CC(C)CC(=O)O)C(C)(C)[C@@H]5CC[C@]43C)[C@@H]12 (some centres undefined)	> 200	19.1	–
C=C(Br)CNC(=O)CCC(=O)NCC(=C)Br	> 200	> 200	–
COc1ccc(OC)c2c3c(ccc12)C1(CCc2c(C)cccc21)OC3=O (centres undefined)	> 55	8.13	–
c1cnc2c(c1)Nc1cnncc1S2	> 200	> 200	–
Clc1ccc(CNCCCNCc2ccc(Cl)c(Cl)c2)cc1Cl	> 200	15.8	–
O=C(Nc1cc2c(oc1=O)CCCCCC2)c1ccccc1	> 200	> 200	–
COC(=O)c1ccc(CN2CCc3c([nH]c4ccccc34)C2CO)o1 (centres undefined)	> 148	52.5	–
CN(C)CCC=C1c2ccccc2C(C)(C)c2ccccc21	> 141	25.1	–
C=CCC1(c2ccccc2)Oc2cccnc2-n2cccc2C1=O (centres undefined)	> 200	8.91	–
CC(=O)/C(=C/n1ccc(=O)[nH]c1=S)C(=O)Nc1ccc(Cl)cc1	> 200	155	–
c1ccc2c(c1)ncn2CCn1ccnc1	> 200	> 200	–
COC(=O)C(C(=O)C(=O)Nc1ccccc1OC)c1csc(-n2nc(-c3ccccc3)cc2-c2ccccc2)n1 (centres undefined)	> 115	97.7	–
O=C1CN(C2CCCCC2)CC(=O)N2CCCCN12	> 200	> 200	–
c1ccc2cc3c(cc2c1)Cn1c-3nc2ccccc21	> 200	> 200	–
Cn1ccnc1Cn1cc(-c2cccc(-c3cn[nH]c3)c2)cn1	–	–	inactive
CCC(C)C(NC(=O)C(CCCC(N)=O)NC(=O)CNC(=O)C(NC(=O)C(NC(=O)C(NC(=O)C(Cc1ccccc1)NC(=O)C(C)NC(=O)C(CCCNC(=N)N)NC(=O)CNC(=O)C1CCCN1C(=O)CNC(=O)C(CCCNC(=N)N)NC(=O)C(CCCC(N)=O)NC(=O)C(NC(=O)C(CCCNC(=N)N)NC(=O)C(NC(=O)C(COC1OC(CO)C(O)C(O)C1NC(C)=O)NC(=O)C(CCCCN)NC(=O)C(CCCNC(=N)N)NC(=O)C(NC(=O)C(CC(N)=O)NC(=O)C(N)CC(N)=O)C(C)O)C(C)CC)C(C)CC)C(C)C)C(C)O)C(C)CC)C(=O)NCC(N)=O (centres undefined)	> 50.1	> 50.1	–
Cn1c(=O)c2c(=O)cc(N)[nH]c2n(C)c1=O	–	–	inactive
CC(=O)OCC1OC(Nc2ccc3nc(C)n(-c4ccccc4)c(=O)c3c2)C(OC(C)=O)C(OC(C)=O)C1OC(C)=O (centres undefined)	> 100	61.7	–
C#CC1(O)c2ccccc2C(=O)c2ccccc21	–	–	inactive

SMILES	EC50 [µM]	IC50 [µM]	outcome
CC(=O)N(C(C)=O)n1c(-c2ccccc2)n[nH]c1=O	> 200	> 200	–
CCOC(=O)c1cc2c(nc1N)/C(=C/c1ccccc1)CCCC2	> 200	10.7	–
COC(=O)CCC(=O)Nc1ccc(Cl)cc1C	–	–	inactive
C1CSCCCSCCCSCCCSCCCSC1	> 14.1	> 14.1	–
N=C(N)C1CN(CCCCCCCCCCN2CC(C(=N)N)C(=O)NC2=O)C(=O)NC1=O (centres undefined)	> 200	> 200	–
CCOC(=O)C(Cc1c2ccccc2cc2ccccc12)(NC(C)=O)C(=O)OCC	> 200	> 200	–
CON(C)C(C#N)=C(C#N)C#N	> 200	> 200	–
CCC1(O)C(=O)OCc2c1cc1n(c2=O)Cc2cc3cc(N)ccc3nc2-1 (centres undefined)	> 0.1	0.0794	–
Cc1ccc(NCC(=O)N2CC(=O)Nc3ccccc32)c(C)c1	> 17	> 17	–
COC(=O)CC[C@@H](NC(=O)C(C)NC(=O)COC1C(O)C(COC(=O)CCCCCCCCCCNC(=O)c2ccc([N+](=O)[O-])c3[nH]c4cc(Br)ccc4c(=O)c23)OC(OCc2ccccc2)C1NC(C)=O)C(N)=O (some centres undefined)	–	–	inactive
CC(C)(C)OC(=O)N/N=C(/N)c1ccccc1	> 200	> 200	–
O=C(O)/C(=C/C=C/c1ccccc1)c1csc(-c2nc(/C(=C\C=C\c3ccccc3)C(=O)O)cs2)n1	> 182	> 100	–
CC1(C2COC(=O)C2)SCCCS1 (centres undefined)	> 100	60.3	–
O=C(Cc1nc2ccccc2s1)C(=O)Nc1ccccc1C(F)(F)F	> 70.8	> 70.8	–
COc1ccc(/C=c2\sc3nc(-c4ccccc4)nn3c2=O)cc1	182	195	–
CCOC(=O)NC(=O)c1cn(CCN2CCN(c3ncnc4nc[nH]c34)CC2)c(=O)[nH]c1=O	–	–	inactive
Cc1cc(C)c2c(c1)sc1n[nH]c(=S)n12	> 63.1	> 63.1	–
Cc1cc(Cc2cc(C)cc(S(=O)(=O)O)c2O)c(O)c(S(=O)(=O)O)c1	209	646	–
Cc1c(/C=N/NC(=O)c2ccccc2)c(=O)n(-c2ccccc2)n1C	> 200	> 200	–
c1ccc(C2SCC3COCN32)cc1 (centres undefined)	> 240	> 240	–
Cc1ccc(N=Nc2ccc(N(CCC#N)CCC#N)cc2C)c(Br)c1	> 3.55	> 3.55	–

SMILES	EC50 [µM]	IC50 [µM]	outcome
COc1ccc(/C=C2\CNC/C(=C\c3ccc(OC)cc3)C2=O)cc1	> 7.41	> 7.41	–
CC(=O)Oc1ccc2c(c1)Oc1cc(OC(C)=O)ccc1C21OC(=O)c2ccccc21	> 200	–	–
O=C1CCCCCN1c1ccccn1	> 1320	> 1320	–
Nc1ccn(C2CC(CO)C(CO)C2)c(=O)n1 (centres undefined)	> 209	> 209	–
C=CCn1c(-c2ccc(Cl)cc2Cl)csc1=Nc1c(C)n(C)n(-c2ccccc2)c1=O	> 200	6.61	–
Cc1nc2c(s/c(=N\N)n2-c2ccccc2)c(=O)n1C	> 13.2	> 13.2	–
COC(=O)CCC(=O)c1ccc2c(c1)CCC2	> 200	> 200	–
Sc1ccccc1N=Cc1cccs1	> 200	93.3	–
O=C(Nc1ccc2oc3ccc(Cl)cc3c(=O)c2c1)c1ccc(Cl)cc1Cl	> 12.3	> 12.3	–
C[CH2][Sn]([CH2]C)([O]C(=O)C(OC(C)=O)c1ccccc1)[O]C(=O)C(OC(C)=O)c1ccccc1 (centres undefined)	> 229	2.69	–
CC(NC(=O)C(NC(=O)OCc1ccccc1)C(C)C)C(=O)NCC(=O)ON1C(=O)CCC1=O (stereo not drawn) (Cbz-Val-Ala-Gly-OSu; configuration not given here)	> 100	> 100	–
CC(C)OC(=O)Nc1c([N+](=O)[O-])cc(C(F)(F)F)cc1[N+](=O)[O-]	–	–	inactive
CCOC(=O)/C(C#N)=C/c1ccc2c(c1)CC1(C2)Cc2cc(CC)c(C(C)O)cc2C1 (centres undefined)	> 200	3.63	–
OCC1OC(Oc2cc(O)cc(CCc3ccc(O)c(O)c3)c2)C(O)C(O)C1O (centres undefined)	> 617	41.7	–
O=C1[C@@H]2[C@H](C(=O)N1c1ccccc1)[C@H]1CC[C@H]2N1C(=O)c1ccccc1	> 55	> 55	–
O=P(O)(O)CN1CCNCCN(CP(=O)(O)O)CCNCC1	> 200	10	–
CC1(C)OC(=O)[C@@](C)([C@H](O)c2ccccc2)O1	–	–	inactive
CCOC(=O)COS(=O)(=O)C(F)(F)F	> 1050	> 1050	–
CC(NC(=O)CNP(=O)(c1ccccc1)c1ccccc1)C(=O)NC(Cc1ccccc1)C(=O)OCc1ccccc1 (centres undefined)	> 200	20.4	–
O=C1C(Cl)C(c2cc(Br)cc(Br)c2O)N1n1cnc2ccccc2c1=O (centres undefined)	> 10.5	> 10.5	–
Clc1ccc(OC2CCO2)cc1Cl (centres undefined)	> 162	145	–

SMILES	EC50 [µM]	IC50 [µM]	outcome
CCOC(=O)c1ccc(N2C(=O)c3cccc4cccc(c34)C2=O)cc1	> 100	> 100	–
COc1c(O)cc2c(c1O)C1O[C@H](CO)C(O)[C@H](O)[C@H]1OC2=O (some centres undefined)	> 200	> 200	–
CCOC(=O)[C@H]1Nc2ccc(Cl)cc2[C@H]2CCC[C@@H]12	> 67.6	> 67.6	–
CCOc1ccc(N=Nc2c(-c3ccccc3)nn(C(=O)CC(=O)Nc3ccccc3Cl)c2-c2ccccc2)cc1	> 33.1	> 33.1	–
CCn1c2ccccc2c2cc(N=C3C(=O)N(C)c4ccccc43)ccc21	> 200	10.7	–
CSc1nc(-c2ccccc2)nc(=[N+]2CCOCC2)s1	> 417	234	–
CC(=O)/C(=C/c1cccc(Br)c1)C(=O)c1ccccc1	> 21.9	11.2	–
COc1ccc(Oc2ccccc2N)cc1	–	–	inactive
Nc1nc(Cl)cc(NCCCCCNc2cc(Cl)nc(N)n2)n1	–	–	inactive
C=C=[CH][Sn]([c]1ccccc1)([c]1ccccc1)[c]1ccccc1	> 35.5	0.676	–
Oc1cccc2c1NC1=C(CCC/C1=C\c1ccccc1)C2	> 9.33	> 9.33	–
CCOC(=O)NC1=NCC(C)S1 (centres undefined)	–	–	inactive
Cc1ccc(NCCN(C)C)c2c(=O)c3cc(O)ccc3oc12	> 155	1.02	–
Cc1c(C)c2ccc(O)cc2[nH]c1=O	> 200	182	–
CCN(CC)C(=O)CCN1CC1	> 200	> 200	–
NC(=O)c1ncn(Cc2ccccc2)c1CNC(N)=S	–	–	inactive
Clc1ccc(SC(/C=C/NNC2=NC(c3ccccc3)C(c3ccccc3)=NN2)c2ccccc2)cc1 (centres undefined)	> 7.24	5.62	–
O=C(O)c1cc(C(=CCCBr)c2cc(Cl)c(O)c(C(=O)O)c2)cc(Cl)c1O	117	219	–
O=C1c2ccccc2C(=O)N1n1c(Cc2ccc(Cl)cc2)n[nH]c1=O	> 200	> 200	–
O=[N+]([O-])c1ccc2c(c1)/C(=N/N=C1c3ccccc3Cc3ccccc31)c1cc([N+](=O)[O-])cc([N+](=O)[O-])c1-2	–	–	inactive
N#Cc1nc(C(=O)c2ccccc2)oc1N	> 200	> 200	–

From PubChem BioAssay AID179 (DTP/NCI, 2004)
